According to patent US20090023637A1, “Methods for detecting and treating interstitial cystitis” (priority 2006, published 2009):

Experiments:
rat bladder [1] = assay: Evaluation of bladder overactivity in rodents (urodynamics), Example 2; type: in vivo, Sprague-Dawley rats; conditions: intravesical infusion; TF 15 mg/mL alone or mixed 1:1 with unmodified THP or THP-d 10 mg/ml, followed by 400 mM KCl for 30 min
Procedure: After a few days of acclimatization, adult male SD rats underwent urodynamics evaluation of bladder hyperactivity before and after intravesical infusion of a test substance^8 (TF or TF plus unmodified THP or TF plus THP-d) followed by intravesical KCl. The procedure for the in vivo rat study was performed as described previously.^23
After baseline measurements of pressure threshold, peak pressure, frequency of contractions, inter-contractile interval, and percentage of nonvoiding contractions (NVC) were recorded as previously described,^23 rats were infused with the test solution. One group of animals received an infusion of TF (15 mg/mL). To test the effect of desialylation on the ability of THP to attenuate the bladder hyperactivity induced by TF and KCl, second and third groups of animals received an infusion of a mixture of unmodified THP or THP-d 10 mg/ml and TF (15 mg/ml) mixed in a ratio of 1:1.
Infusion of the test solution was followed by infusion of 400 mM KCl for 30 min^8 and urodynamics measurements were repeated.

rat bladder [2] = assay: Evaluation of bladder overactivity in rodents (urodynamics, KCl infusion after test substance), Example 1; type: in vivo, Sprague-Dawley rats; conditions: intravesical infusion; TF 15 mg/mL or THP 10 mg/ml + TF 15 mg/ml 1:1, followed by 400 mM KCl for 30 minutes
Excerpt: (§1) After a few days of acclimatization, two groups (n=9 each) of adult male Sprague-Dawley rats (325-350 g) underwent urodynamics evaluation of bladder hyperactivity before and after intravesical infusion of a test substance (TF or TF plus THP) followed by intravesical KCl.^8 The procedure was as follows.
The rats were anesthetized with a subcutaneous injection of urethane (1.2 g/Kg) and a 1 cm incision was made along the centerline of the lower ventral abdomen. Once the bladder was exteriorized, a 22 gauge (0.7 mm) catheter (Intracath, Becton-Dickinson, OH) was inserted into the bladder dome and sutured in place using a purse string suture with 4.0 tapered prolene suture. The bladder was returned to the abdomen, with the line escaping through the incision. […] During the continuous filling bladder cystometry, the pressure was recorded with the transducer using the program LabView (National Instruments, TX).
To induce hyperactivity, the bladder was first infused with warm (37° C.) 0.9% saline or 400 mM KCl (29.8 mg/mL, Abbott Laboratories, IL) at 40 μL/min (2.4 mL/hr) and at least 20 minutes of stable voiding cycles were recorded during infusion. The pressure threshold (PT, pressure at which voiding initializes) and peak pressure (PP, pressure maximum or amplitude of bladder contractions) were recorded. […]

rat bladder [3] = assay: Evaluation of bladder overactivity in rodents (urodynamics), Example 4; type: in vivo, Sprague-Dawley rats; conditions: intravesical infusion; PS 30 mg/mL, toxic factor 15 mg/mL, or PPS 10 mg/ml + toxic factor 15 mg/ml, followed by 400 mM KCl for 30 minutes
Excerpt: as §1, with “three” for “two”, “(PS, urinary toxic factor,” for “(TF”, “toxic factor” for “TF”, “PPS)” for “THP)”, “KCl.^4” for “KCl.^8 The procedure was as follows.”
The procedure was as follows: The rats were anesthetized with a subcutaneous injection of urethane (1.2 g/Kg) and a 1 cm incision made along the centerline of the lower ventral abdomen. […] During the continuous filling bladder cystometry, the pressure was recorded with the transducer using the program LabView (National Instruments, TX).
To induce hyperactivity, the bladder was first infused with warm 0.9% saline (37° C.) at 40 μL/min (2.4 mL/hr) and at least 20 minutes of stable voiding cycles recorded during infusion. The pressure threshold (PT, pressure at which voiding initializes) and peak pressure (PP, pressure maximum or amplitude of bladder contractions) were recorded. Frequency of contractions and inter-contractile interval (ICI) were recorded, along with the percentage of non-voiding contractions (% NVC, contractions where the PP is greater than 2 cm H2O and less than the TP, thus not resulting in a void). […]

[4] = test system: human bladder cells (HTB4); assay: Cytotoxicity assay, unmodified versus desialylated THP, Example 2
Procedure: The TF obtained from 2 different pooled urine samples (TF1, TF2) was tested for cytotoxicity using the CellTiter96 Aqueous One Solution Proliferation Assay™ (Promega Corp, Madison, Wis.). Rat urothelial target cells and human HTB4 urothelial cells were plated in 96-well tissue culture plates (Nunclon™) in triplicate (50,000 cells/well). Cells had been maintained in Ham's-M199 tissue culture media supplemented with 10% fetal calf serum (FCS)+antibiotics (Pen-Strep).
For cytotoxicity assay, cells were harvested from seed flasks, washed free of trypsin-EDTA, and resuspended in DME media (without phenol red indicator) −1% FCS (assay media). An aliquot of the cell suspension was counted in a hemocytometer and diluted with assay media to a concentration of 0.5×10^6 cells/ml, from which 100 μl (5×10^4 cells) were added to each well in a 96-well microtiter plate. […] Dose response data was determined beforehand for the TF preparations. […]
After overnight incubation at 37° C., the target cells were washed twice with DME alone (200 μl/well) and fresh DME added to each well (90 μl). Then a tetrazolium compound (MTS-Owen's Reagent) combined with an electron coupling reagent (PES) was added (10 μl/well) per kit protocol and absorbance measured in a plate reader after 30 min incubation at 490 nm and at 630 nm after blanking the plate to DME media containing the tetrazolium compound. […]

[5] = THP zeta potential (mV) measurements; type: physicochemical; conditions: 0.01M NaCl buffer, pH 7.0 at 25° C.; n=6 in each group
Procedure: Surface charge properties (zeta potential) are measured for THP samples from patients (n=6) and controls (n=6). THP (Biomedical Technologies, Inc.) and fetuin and asialofetuin (Sigma Chemical Co.) standards (50 μg) are similarly measured. Zeta potential and size measurements are made with a Zetasizer Nano ZS instrument and a CGS-3 Goniometer system (Malvern Instruments Inc., Southborough, Mass.) with ancillary software version 4.0. All zeta potential measurements are conducted on rehydrated samples in 0.01M NaCl buffer, pH 7.0 at 25° C., after centrifugation followed by filtration ([…]) to remove any aggregates. Measurements are made in triplicate and the results analyzed by Student's t test for significance.

Compound: [Cl-].[K+] [KCl]
- NVC/minute (nonvoiding contractions) (rat bladder [1]): 0.25 ± 0.064 NVC/minute
- NVC/minute (nonvoiding contractions) (rat bladder [2]): 0.25 ± 0.064 NVC/minute
- NVC/minute (nonvoiding contractions) (rat bladder [3]): 0.25 ± 0.064 NVC/minute

Compound: THP-d: THP desialylated by mild acid hydrolysis in 2.5M acetic acid, 3 hr at 82° C.
- Average cytotoxicity (%) ([4]; HTB4 cells 5 × 10^4/well, THP or THP-d mixed with TF 60 min, overnight incubation, relative to media controls): 13.4%

Compound: control THP: THP isolated from urine of healthy control subjects
- zeta potential [5]: −28.0±2.4 mV

Compound: protamine sulfate
- Cytotoxicity LD50 ([4]; footnote to Table 3, known cytotoxic agent): †Cytotoxicity of protamine sulfate, a known cytotoxic agent: LD50 = ~20 μg
- NVC/minute (nonvoiding contractions) (rat bladder [3]): 1.733 ± 0.55 NVC/minute
